Data: ChEMBL document CHEMBL5338717, “Discovery of novel PDE4 inhibitors targeting the M-pocket from natural mangostanin with improved safety for the treatment of Inflammatory Bowel Diseases” (Eur J Med Chem, 2022)
Activity calls are given as the source filed them. No cut-off for these calls is given here.

Columns and labels:
[1] = Selectivity index, ratio of IC50 for inhibition of recombinant PDE3A (679 to 1087 residues) (unknown origin) expressed in Escherichia coli BL21 to IC50 for inhibition of recombinant PDE4D2 (86 to 413 residues) (unknown origin) expressed in Escherichia coli BL21
[2] = molecular target: 3',5'-cyclic-AMP phosphodiesterase 4B (Homo sapiens, UniProt Q07343); assay: Inhibition of recombinant PDE4B2 (152 to 487 residues) (unknown origin) expressed in Escherichia coli BL21 using [3H]cAMP as substrate incubated for 15 mins by liquid scintillation method
[3] = tested on: Mus musculus; assay: Anti-inflammatory bowel disease activity in DSS-induced inflammatory bowel disease C57BL/6 mouse assessed as decrease in neutrophil infiltration in colon at 5 mg/kg, iv BID and measured after 8 days by Haematoxylin and eosin staining based microscopy; type: functional, organism-based; conditions: time 8.0 day
[4] = molecular target: cAMP and cAMP-inhibited cGMP 3',5'-cyclic phosphodiesterase 10A (Homo sapiens, UniProt Q9Y233); assay: Inhibition of recombinant PDE10A2 (449 to 770 residues) (unknown origin) expressed in Escherichia coli BL21 using [3H]cAMP as substrate incubated for 15 mins by liquid scintillation method
[5] = tested on: Mus musculus; assay: Anti-inflammatory bowel disease activity in DSS-induced inflammatory bowel disease C57BL/6 mouse model assessed as decrease in TNF-alpha mRNA expression level in colon at 5 mg/kg, iv BID and measured after 8 days by real-time PCR analysis; type: functional, organism-based; conditions: time 8.0 day
[6] = molecular target: 3',5'-cyclic-AMP phosphodiesterase 4D (Homo sapiens, UniProt Q08499); assay: Inhibition of recombinant PDE4D2 (86 to 413 residues) (unknown origin) expressed in Escherichia coli BL21 using [3H]cAMP as substrate incubated for 15 mins by liquid scintillation method
[7] = molecular target: cGMP-dependent 3',5'-cyclic phosphodiesterase (Homo sapiens, UniProt O00408); assay: Inhibition of recombinant PDE2A (580 to 919 residues) (unknown origin) expressed in Escherichia coli BL21 using [3H]cGMP as substrate incubated for 15 mins by liquid scintillation method
[8] = tested on: Mus musculus; assay: Anti-inflammatory bowel disease activity in DSS-induced inflammatory bowel disease C57BL/6 mouse model assessed as increase in body weight at 5 mg/kg, iv BID and measured after 8 days […]; type: functional, organism-based; conditions: time 8.0 day
[9] = MRT(0 to 24 hrs) in Sprague-Dawley rat at 2.5 mg/kg, iv; type: ADME, organism-based; conditions: in vivo
[10] = molecular target: Cytochrome P450 2D6 (Homo sapiens, UniProt P10635); assay: Inhibition of human CYP2D6 in human hepatocytes; type: ADME, cell-based, Hepatocyte
[11] = tested on: Mus musculus; assay: Anti-inflammatory bowel disease activity in DSS-induced inflammatory bowel disease C57BL/6 mouse model assessed as increase in colon length at 5 mg/kg, iv BID and measured upto 8 days; type: functional, organism-based; conditions: time <= 8.0 day
[12] = molecular target: cGMP-inhibited 3',5'-cyclic phosphodiesterase 3A (Homo sapiens, UniProt Q14432); assay: Inhibition of recombinant PDE3A (679 to 1087 residues) (unknown origin) expressed in Escherichia coli BL21 using [3H]cAMP as substrate incubated for 15 mins by liquid scintillation method
[13] = Volume of distribution at steady state in Sprague-Dawley rat at 2.5 mg/kg, iv; type: ADME, organism-based; conditions: in vivo, read-out: Vdss
[14] = tested on: Mus musculus; assay: Anti-inflammatory bowel disease activity in DSS-induced inflammatory bowel disease C57BL/6 mouse model assessed as decrease in mucosal ulceration in colon at 5 mg/kg, iv BID and measured after 8 days by Haematoxylin and eosin staining based microscopy; type: functional, organism-based; conditions: time 8.0 day
[15] = Selectivity index, ratio of IC50 for inhibition of recombinant PDE9A2 (181 to 506 residues) (unknown origin) expressed in Escherichia coli BL21 to IC50 for inhibition of recombinant PDE4D2 (86 to 413 residues) (unknown origin) expressed in Escherichia coli BL21
[16] = Selectivity index, ratio of IC50 for inhibition of recombinant PDE10A2 (449 to 770 residues) (unknown origin) expressed in Escherichia coli BL21 to IC50 for inhibition of recombinant PDE4D2 (86 to 413 residues) (unknown origin) expressed in Escherichia coli BL21
[17] = molecular target: High affinity cAMP-specific and IBMX-insensitive 3',5'-cyclic phosphodiesterase 8A (Homo sapiens, UniProt O60658); assay: Inhibition of recombinant PDE8A1 (480 to 828 residues) (unknown origin) expressed in Escherichia coli BL21 using [3H]cAMP as substrate incubated for 15 mins by liquid scintillation method
[18] = tested on: Mus musculus; assay: Anti-inflammatory bowel disease activity in DSS-induced inflammatory bowel disease C57BL/6 mouse model assessed as decrease in IL-10 mRNA expression level in colon at 5 mg/kg, iv BID and measured after 8 days by real-time PCR analysis; type: functional, organism-based; conditions: time 8.0 day
[19] = tested on: Mus musculus; assay: Anti-inflammatory bowel disease activity in DSS-induced inflammatory bowel disease C57BL/6 mouse model assessed as decrease in rectal bleeding by measuring disease activity index score at 5 mg/kg, iv BID and measured upto 8 days by Haem-occult test; type: functional, organism-based; conditions: time <= 8.0 day
[20] = tested on: Mus musculus; assay: Anti-inflammatory bowel disease activity in DSS-induced inflammatory bowel disease C57BL/6 mouse model assessed as decrease in diarrhoea by measuring disease activity index score at 5 mg/kg, iv BID and measured upto 8 days; type: functional, organism-based; conditions: time <= 8.0 day
[21] = Acute toxicity in mouse assessed as body weight change at 0.75 g/Kg,po; conditions: in vivo, 750 mg/kg
[22] = molecular target: High affinity cGMP-specific 3',5'-cyclic phosphodiesterase 9A (Homo sapiens, UniProt O76083); assay: Inhibition of recombinant PDE9A2 (181 to 506 residues) (unknown origin) expressed in Escherichia coli BL21 using [3H]cGMP as substrate incubated for 15 mins by liquid scintillation method
[23] = molecular target: High affinity 3',5'-cyclic-AMP phosphodiesterase 7A (Homo sapiens, UniProt Q13946); assay: Inhibition of recombinant PDE7A1 (130 to 482 residues) (unknown origin) expressed in Escherichia coli BL21 using [3H]cAMP as substrate incubated for 15 mins by liquid scintillation method
[24] = tested on: Mus musculus; assay: Anti-inflammatory bowel disease activity in DSS-induced inflammatory bowel disease C57BL/6 mouse model assessed as decrease in epithelial damage in colon at 5 mg/kg, iv BID and measured after 8 days by Haematoxylin and eosin staining based microscopy; type: functional, organism-based; conditions: time 8.0 day
[25] = Toxicity in twelve hrs fasted Beagle dog assessed as emesis at 10 mg/kg,po and measured upto 180 mins; type: organism-based, Canis lupus familiaris; conditions: in vivo, 3 h
[26] = Selectivity index, ratio of IC50 for inhibition of recombinant PDE4B2 (152 to 487 residues) (unknown origin) expressed in Escherichia coli BL21 to IC50 for inhibition of recombinant PDE4D2 (86 to 413 residues) (unknown origin) expressed in Escherichia coli BL21
[27] = AUC(0 to 24 hrs) in Sprague-Dawley rat at 2.5 mg/kg, iv; type: ADME, organism-based; parameters: dose 2.5 mg/kg, route iv; conditions: in vivo
[28] = Selectivity index, ratio of IC50 for inhibition of PDE7A1 (130 to 482 residues) (unknown origin) expressed in Escherichia coli BL21 to IC50 for inhibition of recombinant PDE4D2 (86 to 413 residues) (unknown origin) expressed in Escherichia coli BL21

Chain of High affinity 3',5'-cyclic-AMP phosphodiesterase 7A (Q13946 whole entry, the tested form may be a part): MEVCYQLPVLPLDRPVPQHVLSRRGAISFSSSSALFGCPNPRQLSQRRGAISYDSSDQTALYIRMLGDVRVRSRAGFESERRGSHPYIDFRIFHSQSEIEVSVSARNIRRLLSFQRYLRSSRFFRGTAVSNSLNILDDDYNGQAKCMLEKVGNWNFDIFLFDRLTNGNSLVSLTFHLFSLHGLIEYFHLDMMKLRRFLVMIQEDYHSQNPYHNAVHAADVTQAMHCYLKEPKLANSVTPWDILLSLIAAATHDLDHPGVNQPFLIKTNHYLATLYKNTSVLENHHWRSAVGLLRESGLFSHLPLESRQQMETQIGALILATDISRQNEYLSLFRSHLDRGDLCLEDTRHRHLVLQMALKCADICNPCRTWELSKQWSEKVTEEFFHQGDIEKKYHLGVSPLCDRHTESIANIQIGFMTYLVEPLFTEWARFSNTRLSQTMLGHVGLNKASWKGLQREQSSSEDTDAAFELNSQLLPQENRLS
Chain of cGMP-dependent 3',5'-cyclic phosphodiesterase (O00408 whole entry, the tested form may be a part): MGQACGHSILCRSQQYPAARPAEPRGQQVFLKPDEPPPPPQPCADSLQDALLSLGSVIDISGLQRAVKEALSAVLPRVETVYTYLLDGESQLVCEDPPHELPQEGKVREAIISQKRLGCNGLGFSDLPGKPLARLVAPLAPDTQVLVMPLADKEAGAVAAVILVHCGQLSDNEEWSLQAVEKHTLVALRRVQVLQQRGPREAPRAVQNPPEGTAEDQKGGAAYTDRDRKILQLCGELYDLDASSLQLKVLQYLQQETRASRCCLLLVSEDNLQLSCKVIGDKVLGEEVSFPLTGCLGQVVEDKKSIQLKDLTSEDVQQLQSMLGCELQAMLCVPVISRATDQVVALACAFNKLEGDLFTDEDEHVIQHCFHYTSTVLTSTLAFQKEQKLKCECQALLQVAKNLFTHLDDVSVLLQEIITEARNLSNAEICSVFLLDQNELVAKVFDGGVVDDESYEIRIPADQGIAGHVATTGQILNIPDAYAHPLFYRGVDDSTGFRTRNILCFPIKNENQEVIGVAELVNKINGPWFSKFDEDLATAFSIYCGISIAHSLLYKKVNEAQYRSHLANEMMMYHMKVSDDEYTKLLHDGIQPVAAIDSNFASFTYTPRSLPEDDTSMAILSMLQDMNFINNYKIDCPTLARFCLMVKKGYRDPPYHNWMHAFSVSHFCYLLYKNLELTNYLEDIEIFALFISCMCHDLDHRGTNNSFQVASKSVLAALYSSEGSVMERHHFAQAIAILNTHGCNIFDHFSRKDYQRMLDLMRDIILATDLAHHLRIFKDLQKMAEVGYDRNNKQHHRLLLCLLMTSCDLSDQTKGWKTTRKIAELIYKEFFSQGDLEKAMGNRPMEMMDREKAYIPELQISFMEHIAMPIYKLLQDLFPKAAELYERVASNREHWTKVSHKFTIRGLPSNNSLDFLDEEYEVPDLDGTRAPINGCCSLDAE
Chain of 3',5'-cyclic-AMP phosphodiesterase 4B (Q07343 whole entry, the tested form may be a part): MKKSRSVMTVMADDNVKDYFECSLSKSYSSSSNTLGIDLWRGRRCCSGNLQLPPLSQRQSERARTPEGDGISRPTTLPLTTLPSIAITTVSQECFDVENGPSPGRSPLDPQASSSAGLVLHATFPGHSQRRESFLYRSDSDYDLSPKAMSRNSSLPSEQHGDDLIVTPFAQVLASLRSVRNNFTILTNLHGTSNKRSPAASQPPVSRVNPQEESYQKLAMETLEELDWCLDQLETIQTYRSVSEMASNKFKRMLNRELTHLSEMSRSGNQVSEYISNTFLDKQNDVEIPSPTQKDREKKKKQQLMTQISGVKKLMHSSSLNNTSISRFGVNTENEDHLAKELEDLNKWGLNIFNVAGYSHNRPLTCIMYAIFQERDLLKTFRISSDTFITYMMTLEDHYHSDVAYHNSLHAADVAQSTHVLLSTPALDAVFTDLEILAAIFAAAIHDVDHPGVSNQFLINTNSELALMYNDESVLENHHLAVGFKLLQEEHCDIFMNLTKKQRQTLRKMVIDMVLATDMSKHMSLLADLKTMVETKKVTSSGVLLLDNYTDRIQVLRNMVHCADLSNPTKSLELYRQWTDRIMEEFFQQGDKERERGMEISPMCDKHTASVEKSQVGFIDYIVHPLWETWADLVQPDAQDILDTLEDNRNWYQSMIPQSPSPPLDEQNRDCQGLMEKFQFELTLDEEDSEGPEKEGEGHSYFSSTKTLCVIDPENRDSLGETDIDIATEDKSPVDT
Chain of cGMP-inhibited 3',5'-cyclic phosphodiesterase 3A (Q14432 whole entry, the tested form may be a part): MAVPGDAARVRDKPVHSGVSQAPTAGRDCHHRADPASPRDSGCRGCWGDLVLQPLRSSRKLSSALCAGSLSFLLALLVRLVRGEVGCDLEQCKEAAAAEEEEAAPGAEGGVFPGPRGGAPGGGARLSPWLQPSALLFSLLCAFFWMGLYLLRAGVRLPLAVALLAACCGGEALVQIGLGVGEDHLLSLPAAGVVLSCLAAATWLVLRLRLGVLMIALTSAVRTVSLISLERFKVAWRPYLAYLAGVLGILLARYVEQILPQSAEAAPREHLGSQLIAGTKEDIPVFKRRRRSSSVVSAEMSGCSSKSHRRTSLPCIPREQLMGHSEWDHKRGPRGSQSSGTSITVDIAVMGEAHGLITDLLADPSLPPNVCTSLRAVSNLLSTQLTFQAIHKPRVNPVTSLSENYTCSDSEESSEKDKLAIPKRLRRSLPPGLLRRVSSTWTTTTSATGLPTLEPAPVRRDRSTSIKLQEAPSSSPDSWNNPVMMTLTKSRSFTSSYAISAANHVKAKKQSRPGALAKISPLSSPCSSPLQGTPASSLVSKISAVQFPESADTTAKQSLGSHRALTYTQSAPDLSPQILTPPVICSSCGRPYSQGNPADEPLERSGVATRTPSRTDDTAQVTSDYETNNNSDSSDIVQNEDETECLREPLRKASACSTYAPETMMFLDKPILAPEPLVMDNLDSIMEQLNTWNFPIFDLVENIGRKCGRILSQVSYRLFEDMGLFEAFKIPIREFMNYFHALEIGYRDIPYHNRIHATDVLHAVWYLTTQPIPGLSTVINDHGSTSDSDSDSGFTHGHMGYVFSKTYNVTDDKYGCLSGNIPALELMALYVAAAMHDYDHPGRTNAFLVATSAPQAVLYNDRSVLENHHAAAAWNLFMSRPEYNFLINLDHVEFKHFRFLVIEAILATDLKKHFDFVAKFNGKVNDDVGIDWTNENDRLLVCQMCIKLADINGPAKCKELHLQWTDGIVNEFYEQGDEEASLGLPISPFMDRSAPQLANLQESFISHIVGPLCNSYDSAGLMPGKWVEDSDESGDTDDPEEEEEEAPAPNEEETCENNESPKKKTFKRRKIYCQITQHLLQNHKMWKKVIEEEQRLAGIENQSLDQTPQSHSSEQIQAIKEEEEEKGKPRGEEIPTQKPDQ
Chain of High affinity cGMP-specific 3',5'-cyclic phosphodiesterase 9A (O76083 whole entry, the tested form may be a part): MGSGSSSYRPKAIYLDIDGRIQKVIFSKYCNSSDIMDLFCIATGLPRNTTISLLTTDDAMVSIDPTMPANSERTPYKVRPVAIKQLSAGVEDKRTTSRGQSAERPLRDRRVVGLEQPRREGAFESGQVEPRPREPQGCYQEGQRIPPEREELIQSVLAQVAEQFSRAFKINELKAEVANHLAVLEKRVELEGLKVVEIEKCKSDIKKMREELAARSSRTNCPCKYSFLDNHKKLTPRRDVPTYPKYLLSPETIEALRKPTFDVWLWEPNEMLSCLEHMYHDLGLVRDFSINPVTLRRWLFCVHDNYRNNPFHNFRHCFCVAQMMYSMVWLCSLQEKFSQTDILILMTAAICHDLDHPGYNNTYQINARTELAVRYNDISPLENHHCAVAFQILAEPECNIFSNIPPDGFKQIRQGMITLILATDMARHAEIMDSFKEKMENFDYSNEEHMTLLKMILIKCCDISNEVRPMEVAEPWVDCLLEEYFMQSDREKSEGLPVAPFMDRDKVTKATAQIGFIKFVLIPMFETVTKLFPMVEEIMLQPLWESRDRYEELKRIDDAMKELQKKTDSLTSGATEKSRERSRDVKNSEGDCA
Chain of High affinity cAMP-specific and IBMX-insensitive 3',5'-cyclic phosphodiesterase 8A (O60658 whole entry, the tested form may be a part): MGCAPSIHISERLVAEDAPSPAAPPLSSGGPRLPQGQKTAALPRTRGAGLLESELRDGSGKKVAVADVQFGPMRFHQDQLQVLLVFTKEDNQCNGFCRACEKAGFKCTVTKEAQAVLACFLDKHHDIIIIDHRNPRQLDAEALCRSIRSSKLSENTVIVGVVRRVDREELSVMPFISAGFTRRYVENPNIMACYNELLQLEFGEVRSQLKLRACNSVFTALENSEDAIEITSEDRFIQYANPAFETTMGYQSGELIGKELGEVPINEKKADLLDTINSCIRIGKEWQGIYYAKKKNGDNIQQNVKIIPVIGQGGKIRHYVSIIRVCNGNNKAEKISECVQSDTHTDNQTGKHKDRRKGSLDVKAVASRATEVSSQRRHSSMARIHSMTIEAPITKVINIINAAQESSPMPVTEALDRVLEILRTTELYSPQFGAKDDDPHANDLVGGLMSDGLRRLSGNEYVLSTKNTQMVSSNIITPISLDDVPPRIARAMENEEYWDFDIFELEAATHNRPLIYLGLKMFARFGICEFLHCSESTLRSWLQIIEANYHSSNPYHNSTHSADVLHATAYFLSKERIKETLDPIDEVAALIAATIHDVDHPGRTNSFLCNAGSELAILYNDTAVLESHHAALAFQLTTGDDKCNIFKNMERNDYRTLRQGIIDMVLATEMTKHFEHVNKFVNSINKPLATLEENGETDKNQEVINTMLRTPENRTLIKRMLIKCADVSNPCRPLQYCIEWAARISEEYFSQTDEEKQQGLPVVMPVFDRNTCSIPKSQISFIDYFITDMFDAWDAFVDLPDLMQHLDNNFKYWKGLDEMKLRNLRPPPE

With `COc1c(OCC2CC2)cc2oc3cc4c(c(OCc5ccncc5)c3c(=O)c2c1CC=C(C)C)C=CC(C)(C)O4` the Ratio IC50 [1] was greater than 2800, the IC50 [2] was 0.00951 µM and the Activity [3] was “Active”. The IC50 [4] was 1.02 µM, the Activity [5] was “Active” and the IC50 [6] was 0.0035 µM. For the same molecule, the IC50 [7] was greater than 10 µM, the Activity [8] was “Active” and the MRT last [9] was 1.76 h. For the same molecule, the IC50 [10] was greater than 25 µM, the Activity [11] was “Active” and the IC50 [12] was greater than 10 µM. For the same molecule, the Vd [13] was 0.673 L/kg, the Activity [14] was “Active” and the Ratio IC50 [15] was greater than 2800. For the same molecule, the Ratio IC50 [16] was 290, the IC50 [17] was 0.194 µM and the Activity [18] was “Active”. The Activity [19] was “Active”, the Activity [20] was “Active” and the Activity [21] was “Non-Toxic”. For the same molecule, the IC50 [22] was greater than 10 µM, the IC50 [23] was 0.015 µM and the Activity [24] was “Active”. The Activity [25] was “Non-Toxic”, the Ratio IC50 [26] was 2.71 and the AUC(0-t) [27] was 6.52 µg·h/mL. The Ratio IC50 [28] was 4.27.
